{"source": "patent US20260158149A1", "about": "“GLYCOSYLATED PRODRUGS” (UNIVERSITEIT LEIDEN, priority 2021, published 2026)", "key": {"[1]": {"test": "Whole-body glucose measurement in larvae", "settings": "5 dpf larvae treated from 2 hpf, non-wounded", "procedure": "Zebrafish embryos at 2 hpf received a chemical treatment, as indicated, with daily refreshment of the solutions, until 5 dpf. At 5 dpf, the larvae were collected in an Eppendorf tube and 100 μL of ice-cold glucose buffer was added to each sample. The larvae were homogenized using a BulletBlender® for 3 min at 8,000 rpm. The homogenates were then centrifuged at 4° C. for 8 min at 11000 rpm and the supernatant was stored at −20° C. Whole-body glucose concentrations were determined using a Glucose Colorimetric Assay kit (Cayman Chemical, USA), according to the manufacturer's instructions. In each experiment, three biological replicates were used for each treatment group, and the colorimetric assay was performed using technical duplicates."}, "[2]": {"test": "Whole-body cortisol measurement using ELISA", "settings": "5 dpf larvae treated from 2 hpf, non-wounded", "procedure": "Zebrafish embryos at 2 hpf received a chemical treatment, as indicated, with daily refreshment of the solutions, until 96 hpf. Then, the treatments were stopped and embryos were incubated in egg water until 5 dpf to avoid cross-reactivity with the compounds of the cortisol antibody used in the ELISA. Then, the treatments were stopped and replaced with egg water. At 5 dpf, the larvae were collected in an Eppendorf tube and 100 μL of ice-cold phosphate-buffered saline (PBS) was added. The larvae were homogenized using a BulletBlender® for 3 min at 8,000 rpm. Ethyl acetate was added to the homogenate and the supernatant was gathered and vaporized. A volume of 150 μl of 0.2% Bovine serum albumin (Sigma Aldrich) dissolved in phosphate-buffered saline (PBS) was added to the samples and frozen. Whole-body cortisol of the zebrafish larvae was determined by ELISA (Demeditec Diagnostics GmbH, Kiel-Wellsee, Germany), following the manufacturer's instructions. In each experiment, three biological replicates were used for each treatment group, and the colorimetric assay was performed using technical duplicates."}, "[3]": {"system": "il1b, il6, mmp9, mmp13, il8 mRNA", "test": "qPCR of pro-inflammatory genes after tail wounding", "type": "in vivo, Zebrafish (Danio rerio)", "from_the_text": "(§1) For the tail fin amputation experiments, 3 days post fertilization (dpf) larvae from the Tg(mpx:GFP^i114/mpeg1:mCherry^umsF001) line were anesthetized in 0.02% buffered aminobenzoic acid ethyl ester (tricaine) in egg water and placed on a 2% agarose-coated petri dish. The tails were partially amputated with a 1 mm sapphire blade (World Precision Instruments) under a Leica M165C stereomicroscope (Leica Microsystems, Wetzlar, Germany). Chemical treatment (or 0.1% DMSO as vehicle treatment) was started at 2 h before the amputation (pretreatment) and was continued for 4 h after the tail fin amputation (20 larvae per group, unless indicated otherwise), at which time point the larvae were fixed in 4% paraformaldehyde (PFA) overnight at 4° C. and stored at 4° C. until further examination. In some experiments, a 24 h treatment with miglustat, ME656 or MZ31 was started at 2 dpf, and these treatments were continued during the pretreatment and treatment with the other chemicals. For imaging of larvae from the Tg(mpx:GFP^i114/mpeg1:mCherry^umsF001) line, a LeicaMZ16FA fluorescence stereomicroscope with LAS 3.7 software was used. Neutrophils were detected by GFP fluorescence and macrophages by mCherry fluorescence. The neutrophil numbers were determined by blinded manual counting in a pre-determined area. When larvae from gba2^−/− or gr^s357mutant lines were used, neutrophil labeling was performed with the TSA fluorescein detection kit (PerkinElmer) for specific staining of Myeloperoxidase (Mpx)-positive cells, following the manufacturer's instructions.\n(§2) For experiments in zebrafish, gene expression was measured using 3 dpf embryos. Groups of 15 larvae were collected in TRIzol reagent (Invitrogen) and mRNA was isolated using the miRNeasy mini kit (Qiagen), according to the manufacturer's instructions. For experiments in HeLa cells, samples were collected from a single well from 6 well plates (80% confluent) in TRIzol reagent and mRNA was isolated using the RNeasy mini kit. Zebrafish and cells samples were treated with DNAse utilizing the DNA-Free™ kit (Ambion). The cDNA synthesis was performed using iScript cDNA synthesis kit (Bio-Rad) using 1 μg of RNA per sample. For qPCR, 10 μM of forward and 10 μM of reverse primer, 12.5 μL of iQ SYBR Green Supermix (Bio-Rad), and 2 μL of cDNA were added to the qPCR reaction mixture. […] The qPCR reactions were performed on a MyiQ-single-color real-time PCR detection system (Bio-Rad) with initial denaturation for 3 min at 95° C. and 40 cycles of 15 s at 95.5° C., 15 s at 60° C., and 30 s at 72° C. Cycle threshold values (Ct values, i.e. the cycle numbers at which a threshold value of the fluorescence intensity was reached) were determined for each sample. The gene expression level for each sample was normalized using the expression of ppial (peptidylprolyl isomerase Ab (cyclophilin A)) for zebrafish samples, and 18S rRNA for human cells. The fold change per sample (compared to the respective control group) was calculated using the ΔΔCt method."}, "Gr": {"system": "Gr", "test": "Transactivation activity of Gr in Tg(9xGCRE-HSV.UI23:EGFP) reporter line", "type": "in vivo, Zebrafish (Danio rerio)", "settings": "24 h treatment, 3 dpf larvae", "protocol": "The Tg(9xGCRE-HSV.UI23:EGFP)^ia20 zebrafish reporter line expresses enhanced green fluorescent protein (EGFP) under the control of a promoter containing an array of nine GREs. To study the effect of chemical treatments on the transactivation activity of the Gr, 15 zebrafish embryos per group (2 dpf) were treated with the indicated compounds for 24 hours. The transactivation activity of Gr induced by the treatments was assessed using a LeicaMZ16FA fluorescence stereomicroscope supported by LAS 3.7 software. The integrated intensity of the EGFP signal in the larvae was determined using ImageJ software."}, "[4]": {"system": "neutrophils migrated to the wounded area", "test": "Tail fin amputation assay: neutrophil migration to the wounded area", "type": "in vivo, Zebrafish (Danio rerio)", "settings": "for inhibition of neutrophil migration in Gr deficient larvae: gr mutant line (gr-/-); for migration of neutrophils towards the wounded area: wild type larvae, 4 h after tail wounding", "protocol": "Zebrafish (Danio rerio) were maintained and handled according to the guidelines from the Zebrafish Model Organism Database (https://zfin.org/) and in compliance with the directives of the local animal welfare committee of Leiden University. To maintain circadian rhythmicity, adult fish were exposed to a 14 h light and 10 h dark cycle. Fertilization was performed by natural spawning at the beginning of the light period. Fertilized eggs were collected and raised at 28° C. in egg water (60 μg/ml Instant Ocean sea salts and 0.0025% methylene blue). The following zebrafish lines were used in this study: AB/TL wild type, the transgenic lines Tg(mpx:GFP^i114/mpeg1:mCherry^umsF001) (Bernut et al., (2014). Mycobacterium abscessus cording prevents phagocytosis and promotes abscess formation. Proc Natl Acad Sci USA 111, E943-952; Renshaw et al., (2006). A transgenic zebrafish model of neutrophilic inflammation. Blood 108, 3976-3978), and Tg(9xGCRE-HSV.UI123:EGFP)^ia20 (Benato et al., (2014). A living biosensor model to dynamically trace glucocorticoid transcriptional activity during development and adult life in zebrafish. Mol Cell Endocrinol 392, 60-72), and the mutant lines gba2^−/− (Lelieveld et al., (2019). Role of beta-glucosidase 2 in aberrant glycosphingolipid metabolism: model of glucocerebrosidase deficiency in zebrafish. J Lipid Res 60, 1851-1867) and gr^s357 (Ziv et al., (2013). An affective disorder in zebrafish with mutation of the glucocorticoid receptor. Mol Psychiatry 18, 681-691).\nas §1"}, "[5]": {"system": "macrophages migrated to the wounded area", "test": "Tail fin amputation assay: macrophage migration", "type": "in vivo, Zebrafish (Danio rerio)", "settings": "wild type larvae, 4 h after wounding", "protocol": "Zebrafish (Danio rerio) were maintained and handled according to the guidelines from the Zebrafish Model Organism Database (https://zfin.org/) and in compliance with the directives of the local animal welfare committee of Leiden University. To maintain circadian rhythmicity, adult fish were exposed to a 14 h light and 10 h dark cycle. Fertilization was performed by natural spawning at the beginning of the light period. Fertilized eggs were collected and raised at 28° C. in egg water (60 μg/ml Instant Ocean sea salts and 0.0025% methylene blue). […]\nFor the tail fin amputation experiments, 3 days post fertilization (dpf) larvae from the Tg(mpx:GFP^i114/mpeg1:mCherry^umsF001) line were anesthetized in 0.02% buffered aminobenzoic acid ethyl ester (tricaine) in egg water and placed on a 2% agarose-coated petri dish. […] For imaging of larvae from the Tg(mpx:GFP^i114/mpeg1:mCherry^umsF001) line, a LeicaMZ16FA fluorescence stereomicroscope with LAS 3.7 software was used. Neutrophils were detected by GFP fluorescence and macrophages by mCherry fluorescence. The neutrophil numbers were determined by blinded manual counting in a pre-determined area. […]"}, "regenerated tail fin": {"system": "regenerated tail fin", "test": "Regeneration of the tail fin after wounding", "type": "in vivo, Zebrafish (Danio rerio)", "settings": "5 dpf larvae, wounded at 2 dpf", "protocol": "When the regeneration of the tail fins after wounding or the larval body length was used as a readout, chemical treatments of the embryos were started at 2 hours post fertilization (hpf) and continued until 5 dpf. During this period, solutions were refreshed daily. At 5 dpf, larvae were imaged using a LeicaMZ16FA fluorescence stereomicroscope supported by LAS 3.7 software, and the length of the larvae was measured using ImageJ software (15 larvae per treatment group). For the regeneration experiments, tail fins were amputated at 2 dpf and larvae were imaged at 5 dpf (15 larvae per treatment group). The newly grown tissue can be distinguished from the old tissue, enabling precise measurement of the size of the newly grown tissue using ImageJ software."}, "[6]": {"system": "Gr target genes fkbp5, pck1 and nfkbiaa", "test": "qPCR of Gr target genes fkbp5, pck1, nfkbiaa", "type": "in vivo, Zebrafish (Danio rerio)", "protocol": "as §2"}}, "note": "Entries after “also recorded” stand apart in the source; their conditions may differ."}
{"compound": "C[C@H]1C[C@H]2[C@@H]3CCC4=CC(=O)C=C[C@]4(C)[C@@]3(Cl)[C@@H](O)C[C@]2(C)[C@@]1(O)C(=O)CO", "note": "[Bec, beclomethasone]", "values": [{"measurement": "whole body glucose level", "setting": "[1]", "result": "increased the glucose concentration"}, {"measurement": "whole body cortisol level", "setting": "[2]", "result": "decrease in cortisol level; also recorded: decreased the cortisol level; also recorded: significantly larger decrease"}, {"measurement": "wounding-induced increase in expression of il1b, il6 and mmp9", "setting": "[3]", "result": "strongly suppressed"}, {"measurement": "transactivation activity of Gr (GFP signal in GRE:GFP reporter fish line)", "setting": "Gr", "result": "large increase in GFP signal"}, {"measurement": "inhibition of neutrophil migration in Gr deficient larvae", "setting": "[4]", "result": "absent"}, {"measurement": "migration of neutrophils towards the wounded area", "setting": "[4]", "result": "decreases the migration of neutrophils; also recorded: inhibits neutrophil migration; also recorded: inhibited the neutrophil migration"}, {"measurement": "migration of macrophages", "setting": "[5]", "result": "leaves the migration of macrophages unaffected"}, {"measurement": "tissue regeneration (length of regenerated tail fin)", "setting": "regenerated tail fin", "result": "decrease"}]}
{"compound": "C[C@@H]1C[C@H]2[C@@H]3CCC4=CC(=O)C=C[C@]4(C)[C@@]3(F)[C@@H](O)C[C@]2(C)[C@@]1(O)C(=O)CO[C@@H]1O[C@H](C(=O)O)[C@@H](O)[C@H](O)[C@H]1O", "note": "[GDex, dexamethasone-glucuronide]", "values": [{"measurement": "expression of Gr target genes fkbp5, pck1 and nfkbiaa", "setting": "[6]", "result": "did not induce the transactivation activity of the Gr"}, {"measurement": "whole body glucose level", "setting": "[1]", "result": "did not increase the glucose level"}, {"measurement": "whole body cortisol level", "setting": "[2]", "result": "very minor decrease in cortisol level; also recorded: only slightly reduced the cortisol concentrations"}, {"measurement": "wounding-induced increase in expression of il1b, il6, mmp9 and mmp13", "setting": "[3]", "result": "strongly reduced"}, {"measurement": "transactivation activity of Gr (GFP signal in GRE:GFP reporter fish line)", "setting": "Gr", "result": "did not induce the transactivation activity of the Gr"}, {"measurement": "reduction in neutrophil migration in the presence of MZ31", "setting": "[4]; GBA2 inhibitor MZ31", "result": "independent of GBA2 activity"}, {"measurement": "inhibition of neutrophil migration in Gr deficient larvae", "setting": "[4]", "result": "absent"}, {"measurement": "migration of neutrophils towards the wounded area", "setting": "[4]", "result": "inhibits neutrophil migration; also recorded: inhibited the neutrophil migration"}, {"measurement": "migration of macrophages", "setting": "[5]", "result": "without any effect on macrophage migration"}]}
